1 molecule from PMC11304990, “Identification of mitochondrial ATP synthase as the cellular target of Ru-polypyridyl-β-carboline complexes by affinity-based protein profiling” (National Science Review, 2024) can be followed below.

The subject of series [1] is lung adenocarcinoma (A549). Description: MTT antiproliferative assay, A549. The conditions noted are these: 72 h. Type of series: cell-based, human. The source says:
Ru3–Ru9 also show a certain selectivity for cancer cells over normal cells, and Ru2, Ru3, Ru5 and Ru9 show higher selectivity index (SI) values than the other complexes.
PA-BPP was then used to confirm the molecular targets of Ru5 by modifying it with a ‘minimalist’ biorthogonal handle-containing photo-cross-linker. Through our structure–activity relationship analysis and comparison with other ruthenium complexes utilizing phen as the auxiliary ligands with similar coordination structures (using cisplatin as a control), we propose that the β-carboline ligands play an important role in antiproliferative activity. To maintain the binding characteristics of the β-carboline moiety with the targeted biomolecules, we linked the photo-cross-linker to one of the auxiliary ligands of Ru5.
(Tetrazolium dyes change colour on reduction, which living cells bring about.)

A short description of series [2]: Aqueous solubility by concentration-absorbance linearity. It is filed as physicochemical. To be noted: PBS with 1% DMSO.
Description: Subsequently, the lipophilicity and aqueous solubility of Ru1–Ru9 were investigated.

As for `F[P-](F)(F)(F)(F)F.F[P-](F)(F)(F)(F)F.[Ru+2].c1ccc2c(c1)[nH]c1c(-c3ncc[nH]3)nccc12.c1cnc2c(c1)ccc1cccnc12.c1cnc2c(c1)ccc1cccnc12` [Ru5], the IC50 (usually the concentration needed to halve the response being measured) in series [1] turned out to be 2100 ± 800 nM. The “Linear relationship between absorbance and concentration up to” value in series [2] is reported as “at least 100 μM”.
